The record followed here is PMC4279406, “Simultaneous targeting of PI3Kδ and a PI3Kδ-dependent MEK1/2-Erk1/2 pathway for therapy in pediatric B-cell acute lymphoblastic leukemia” (Oncotarget, 2014).

Assay [1] concerns PI3Kδ (M-CSF-stimulated THP-1 monocytes). As to the kind of experiment: M-CSF-induced Akt phosphorylation in THP-1 cells. It is filed as cell-based. The conditions noted are these: at 10 nM; M-CSF 50 ng/ml. The protocol: In fibroblasts, signals from the insulin-like growth factor 1 (IGF-1) receptor are mediated by PI3Kα, while lysophosphatidic acid (LPA) stimulates G-protein coupled receptor (GPCR) signals via PI3Kβ[26]. After being pre-incubated with X-370, murine embryonic fibroblasts cultured in serum-free medium were stimulated with IGF-1 or LPA. […] Either PI3Kδ or PI3Kγ can be activated in THP-1 monocytes dependent on the stimulating ligand, among which macrophage colony stimulating factor (M-CSF/CSF-1) activates RTK-coupled PI3Kδ, while monocyte chemoattractant protein-1 (MCP-1) activates PI3Kγ [24]. Accordingly, THP-1 cells cultured in serum-free medium were stimulated with MCP-1 or M-CSF in the presence of X-370 and phosphorylated Akt was measured.
Cell lysates were probed with indicated antibodies. The IC50 values were calculated based on relative band intensity measured with ImageQuant™ TL (GE Healthcare Life Sciences, Piscataway, NJ) (B). Data shown are mean values from three independent experiments. (C, D, E, F) X-370 blocked stimuli-triggered PI3Kδ activation. MEF cells and THP-1 were starved in serum-free medium for 12 h or 4 h respectively and X-370 were added for an additional 1 h treatment following stimulation of IGF-1 at 100 ng/ml for MEF cells (C), LPA at 10 μM for MEF cells (D), MCP-1 at 100ng/ml for THP-1 (E) and M-CSF at 50 ng/ml for THP-1 (F). […]

Assay [2] concerns PI3KC2α, PI3KC2γ, PIP4K2α, PIP5K1α and PIP5K1γ. As to the kind of experiment: Selectivity against other lipid kinases. The format is biochemical. From the text: Utilizing the crystal structure of PI3Kδ, we designed and synthesized a series of compounds in an effort to discover new potent and selective PI3Kδ inhibitors, which bind to PI3Kδ differently from CAL-101. […] The benzimidazole group of X-370 extends into the affinity pocket, where its nitrogen acts as a hydrogen bond acceptor for the primary amine of Lys779. The difluoromethyl group of X-370 points toward Pro758 in the hydrophobic affinity pocket. Instead of wedging between Met752 and Trp760, a binding mode utilized by CAL-101 to generate specificity against PI3Kδ (Figure S1), the pyrrole group of X-370 presses tightly against Trp760. These specific interactions of X-370 with p110δ confer a selective and potent inhibition of PI3Kδ. As expected, X-370 inhibited the kinase activity of PI3Kδ in an ATP-competitive manner, with IC50 increasing in concert with ATP levels (Figure 1C), confirming the binding of X-370 in the ATP pocket. […] More than 1000-fold selectivity was seen against other lipid kinases tested including PI3KC2α, PI3KC2γ, PIP4K2α, PIP5K1α and PIP5K1γ. […]
Figure 1 Structure of X-370 and its inhibitory activity against lipid kinases (A) Chemical structure of X-370. […] Relative kinase activity in the presence of 10 μM X-370 compared to DMSO control was measured for the rest of lipid kinases. […]

Take `O=C(N1CCCC1)N1CCC(n2cnc3c(-n4c(C(F)F)nc5ccccc54)nc(N4CCOCC4)nc32)CC1` [X-370]: in assay [1], the “M-CSF-induced Akt phosphorylation” value was “completely blocked”. In assay [2], the “selectivity for PI3Kδ against other lipid kinases” value is “More than 1000 fold”.
